Experiment [1] concerns the target T1, NAD-dependent protein deacetylase sirtuin-1 (Homo sapiens, UniProt Q96EB6).
T1 sequence (Q96EB6 whole entry): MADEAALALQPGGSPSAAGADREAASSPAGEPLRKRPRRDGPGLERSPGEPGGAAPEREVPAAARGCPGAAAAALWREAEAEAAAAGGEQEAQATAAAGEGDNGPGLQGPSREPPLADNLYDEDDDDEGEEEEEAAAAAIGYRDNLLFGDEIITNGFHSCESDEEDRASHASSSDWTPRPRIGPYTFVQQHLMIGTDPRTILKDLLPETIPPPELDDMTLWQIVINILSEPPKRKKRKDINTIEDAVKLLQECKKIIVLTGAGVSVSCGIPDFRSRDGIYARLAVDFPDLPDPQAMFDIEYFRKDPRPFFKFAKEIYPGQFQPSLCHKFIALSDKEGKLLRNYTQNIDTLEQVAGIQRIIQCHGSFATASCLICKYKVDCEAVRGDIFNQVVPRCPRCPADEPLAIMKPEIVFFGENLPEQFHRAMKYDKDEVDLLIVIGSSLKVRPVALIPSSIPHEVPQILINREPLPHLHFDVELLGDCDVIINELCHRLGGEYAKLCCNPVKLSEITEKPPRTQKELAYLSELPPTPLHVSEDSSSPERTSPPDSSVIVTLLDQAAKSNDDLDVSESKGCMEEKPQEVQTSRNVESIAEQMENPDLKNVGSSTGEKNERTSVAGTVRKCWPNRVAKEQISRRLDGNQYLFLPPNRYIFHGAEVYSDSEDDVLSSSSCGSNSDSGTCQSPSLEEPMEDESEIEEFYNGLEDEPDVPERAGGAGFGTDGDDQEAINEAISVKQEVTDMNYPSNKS
The experiment in a line: Inhibition of human recombinant SIRT1 using AMC-p53 (379 to 382 residues) as substrate incubated for 45 mins followed by NAD+ addition measured after 30 mins by fluorescence assay.

Experiment [2] deals with T2, NAD-dependent protein deacetylase sirtuin-2 (Homo sapiens, UniProt Q8IXJ6).
T2 sequence (Q8IXJ6 whole entry): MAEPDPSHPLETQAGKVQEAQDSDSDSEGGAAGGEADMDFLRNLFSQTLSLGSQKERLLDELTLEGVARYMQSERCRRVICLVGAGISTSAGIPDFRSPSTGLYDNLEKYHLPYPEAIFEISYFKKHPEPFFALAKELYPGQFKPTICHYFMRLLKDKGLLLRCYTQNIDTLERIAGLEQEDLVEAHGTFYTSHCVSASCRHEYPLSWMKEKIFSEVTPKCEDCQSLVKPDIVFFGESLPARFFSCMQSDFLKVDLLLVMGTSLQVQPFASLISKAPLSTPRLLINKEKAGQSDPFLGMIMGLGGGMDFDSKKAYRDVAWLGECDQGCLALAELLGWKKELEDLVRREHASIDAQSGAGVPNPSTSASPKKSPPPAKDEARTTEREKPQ
The experiment in a line: Inhibition of human recombinant SIRT2 using AMC-p53 (317 to 320 residues) as substrate incubated for 45 mins followed by NAD+ addition measured after 30 mins by fluorescence assay.

Experiment [3] addresses T3, NAD-dependent protein deacetylase sirtuin-3, mitochondrial (Homo sapiens) (UniProt Q9NTG7).
T3 sequence (whole entry): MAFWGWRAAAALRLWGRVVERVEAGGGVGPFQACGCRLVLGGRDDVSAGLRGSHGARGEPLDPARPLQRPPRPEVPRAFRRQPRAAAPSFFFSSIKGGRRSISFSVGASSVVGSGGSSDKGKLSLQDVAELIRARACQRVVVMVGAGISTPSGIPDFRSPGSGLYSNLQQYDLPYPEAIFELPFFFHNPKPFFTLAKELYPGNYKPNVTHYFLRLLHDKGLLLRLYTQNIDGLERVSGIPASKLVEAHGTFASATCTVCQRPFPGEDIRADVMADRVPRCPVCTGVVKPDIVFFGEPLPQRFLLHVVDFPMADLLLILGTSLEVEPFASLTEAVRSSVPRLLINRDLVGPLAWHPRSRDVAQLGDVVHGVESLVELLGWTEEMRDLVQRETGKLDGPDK
The experiment in a line: Inhibition of human recombinant SIRT3 at 50 uM using AMC-p53 ([…] residues) as substrate incubated for 45 mins followed by NAD+ addition measured after 30 mins by fluorescence assay relative to control.

Experiment [4] deals with T4, NAD-dependent protein deacetylase sirtuin-2 (Homo sapiens) (UniProt Q8IXJ6).
T4 sequence (whole entry): T2 sequence (Q8IXJ6 whole entry)
The experiment in a line: Inhibition of human recombinant SIRT2 at 50 uM using AMC-p53 ([…] residues) as substrate incubated for 45 mins followed by NAD+ addition measured after 30 mins by fluorescence assay relative to control.

Experiment [5] has as its target T5, NAD-dependent protein deacetylase sirtuin-1 (Homo sapiens) (UniProt Q96EB6).
T5 sequence (whole entry): T1 sequence (Q96EB6 whole entry)
Briefly: Inhibition of human recombinant SIRT1 at 50 uM using AMC-p53 (379 to 382 residues) as substrate incubated for 45 mins followed by NAD+ addition measured after 30 mins by fluorescence assay relative to control.

In experiment [6] the target is T6, NAD-dependent protein deacetylase sirtuin-3, mitochondrial (Homo sapiens, UniProt Q9NTG7).
T6 sequence (Q9NTG7 whole entry): T3 sequence (whole entry)
The experiment in a line: Inhibition of human recombinant SIRT3 using AMC-p53 (317 to 320 residues) as substrate incubated for 45 mins followed by NAD+ addition measured after 30 mins by fluorescence assay.

In experiment [7] the target is T4, NAD-dependent protein deacetylase sirtuin-2 (Homo sapiens). Briefly: Competitive inhibition of human recombinant SIRT2 using varying levels of NAD+.
Experiment [8] shares this target. The experiment in a line: Competitive inhibition of human recombinant SIRT2 using varying levels of AMC-p53 (317 to 320 residues) as substrate.

The source made the active and inactive calls. The rule behind the calls is not given here. Bounds are passed on as bounds.

As a reminder, the IC50 is the concentration that inhibits the measured activity by half. `CCOC(=O)c1ccc(N2CCN(CCn3c(-c4ccc(-c5ccc(O)c(OC)c5)cc4)nc4cc(C(=O)OCC)ccc43)CC2)c(N)c1`: the IC50 in experiment [1] amounted to 35.1 µM; in experiment [2], 8.61 µM.
A word on the inhibition: it is the drop in the measured response relative to a control, in per cent. Take `CCCCCCCCn1c(-c2ccc(-c3ccccc3)cc2)nc2cc(C(=O)OCC)ccc21`: the inhibition in experiment [3] was found to be 20.4%; in experiment [4], 30%; in experiment [5] it was 23.9%.
For the compound `CCOC(=O)c1ccc(N2CCN(CCn3c(-c4ccc(-c5ccc6c(c5)OCO6)cc4)nc4cc(C(=O)OCC)ccc43)CC2)c(N)c1`, the IC50 in experiment [1] was found to be 29.8 µM; in experiment [2], 16.1 µM; in experiment [6], 27 µM.
With `CCCCCCCCn1c(-c2ccc(-c3ccc(OC(F)(F)F)cc3)cc2)nc2cc(C(=O)OCC)ccc21`, the inhibition in experiment [3] was 16.9%; in experiment [4], 35.6%; in experiment [5] it was 25%.
The corresponding values for `CCCCCCCCn1c(-c2ccc(-c3ccc(O)cc3O)cc2)nc2cc(C(=O)OCC)ccc21` are 31.5%, 45.9% and 29%.
In the same order, the values of `CCOC(=O)c1ccc(N2CCN(CCn3c(-c4ccc(-c5cncc(-c6ccc(F)cc6)c5)cc4)nc4cc(C(=O)OCC)ccc43)CC2)c(N)c1` are 18.4%, 20.9% and 20.6%.
The corresponding values for `CCOC(=O)c1ccc(N2CCN(CCn3c(-c4ccc(-c5ccc(C)cc5)cc4)nc4cc(C(=O)OCC)ccc43)CC2)c(N)c1` are 30.7%, 43% and 28.4%.
On to `CCOC(=O)c1ccc(N2CCN(CCn3c(-c4ccc(-c5ccc(Cl)cc5)cc4)nc4cc(C(=O)OCC)ccc43)CC2)c(N)c1`, for which the inhibition in experiment [3] stood at 38%; in experiment [4] it was 43.3%; in experiment [5], 28.2%.
For the compound `CN(C)CCCCC(=O)Nc1ccc(NC(=S)NC(=O)c2ccc(C(C)(C)C)cc2)cc1`, the IC50 in experiment [6] worked out at 82.6 µM.
Turning to `CCCCCCCCn1c(-c2ccc(-c3ccc(O)c(OC)c3)cc2)nc2cc(C(=O)OCC)ccc21`, the results for the IC50 in experiment [1], in experiment [2] and in experiment [6] were more than 50 µM, 46.9 µM and more than 50 µM, respectively.
Regarding `CCCCCCCCn1c(-c2ccc(-c3ccc4c(c3)OCO4)cc2)nc2cc(C(=O)OCC)ccc21`, the IC50 was more than 50 µM in experiment [1], 41.4 µM in experiment [2] and more than 50 µM in experiment [6].
As for `CCCCCCCCn1c(-c2ccc(-c3ccc(C)cc3)cc2)nc2cc(C(=O)OCC)ccc21`, the inhibition in experiment [3] was 19.4%; in experiment [4] it was 30.3%; in experiment [5] it was 15.3%.
The corresponding values for `CCCCCCCCn1c(-c2ccc(-c3cccc(-c4ccc(F)cn4)c3)cc2)nc2cc(C(=O)OCC)ccc21` are 24.4%, 14% and 22%.
In the case of `CCCCCCCCn1c(-c2ccc(-c3ccc(Cl)cc3)cc2)nc2cc(C(=O)OCC)ccc21`, the inhibition in experiment [3] amounted to 24.9%; in experiment [4], 38.3%; in experiment [5], 24.3%.
In the same order, the values of `CCOC(=O)c1ccc(N2CCN(CCn3c(-c4ccc(-c5ccc(OC(F)(F)F)cc5)cc4)nc4cc(C(=O)OCC)ccc43)CC2)c(N)c1` are 20.6%, 37.2% and 24.6%.
As for `CCOC(=O)c1ccc(N2CCN(CCn3c(-c4ccc(-c5ccc(O)cc5O)cc4)nc4cc(C(=O)OCC)ccc43)CC2)c(N)c1`, the figures for the IC50 in experiment [1] and in experiment [2] were 20 µM and 7.87 µM, respectively.
Regarding `CCOC(=O)c1ccc(N2CCN(CCn3c(-c4ccc(-c5ccccc5)cc4)nc4cc(C(=O)OCC)ccc43)CC2)c(N)c1`, the inhibition in experiment [3] was 25.1%; in experiment [4], 26.8%; in experiment [5], 31.1%.
With `CCCCCCCCn1c(-c2ccc(-c3ccc(N(C)C)cc3)cc2)nc2cc(C(=O)OCC)ccc21`, the figures for the IC50 in experiment [1], in experiment [2] and in experiment [6] were more than 50 µM, 38.1 µM and more than 50 µM, respectively.
For `CCOC(=O)c1ccc(N2CCN(CCn3c(-c4ccc(-c5ccc(N(C)C)cc5)cc4)nc4cc(C(=O)OCC)ccc43)CC2)c(N)c1`, the IC50 was 10.2 µM in experiment [1] and 2.92 µM in experiment [2]. In addition, the inhibition result in experiment [7] and in experiment [8] was “Active” in each case.
As for `CCCCCCCCn1c(-c2ccc(-c3ccc(N4CCCCC4)cc3)cc2)nc2cc(C(=O)OCC)ccc21`, the figures for the 50% inhibitory concentration (IC50) in experiment [1], in experiment [2] and in experiment [6] were more than 50 µM, 36.8 µM and more than 50 µM, respectively.
For the compound `CCOC(=O)c1ccc(N2CCN(CCn3c(-c4ccc(-c5ccc(N6CCCCC6)cc5)cc4)nc4cc(C(=O)OCC)ccc43)CC2)c(N)c1`, the figures for the IC50 in experiment [1] and in experiment [2] were 37 µM and 13.5 µM, respectively.

The values are drawn from ChEMBL document CHEMBL4190173 (Medchemcomm, 2016).
